In publication PMC12040169 (PLOS Biology, 2025):

assay: in vitro; details: human, hela cells, % viability

SMILES	viability at 28.5 h, 10 µM [%]
CCN(CC)CCn1c(=N)n(Cc2ccc(C(C)(C)C)cc2)c2ccccc21 [CBK268803B]	82.9
CC(=O)Nc1ccc(Nc2nc(-c3ccc(O)cc3)cn3ccnc23)cc1 [CBK037992]	94.8
C[Si]1(C)O[Si](C)(C)O[Si](C)(CC[Si](C)(C)c2ccccc2)O[Si](C)(C)O1 [CBK260998]	97
COCCNc1nccnc1-c1ccsc1 [CBK038008]	95.4
O=C(c1ccc(F)cc1)C1CCN(C/C=C/c2ccccc2)CC1 [CBK149124]	90.4
Nc1ccn(C2OC(CO)C(O)C2O)c(=O)n1 (stereo not shown) [CBK024684]	108
CS(=O)(=O)N[C@H]1C[C@H]2C(=O)Nc3ccc(-c4cccs4)cc3C(=O)N2C1 [CBK289359]	95.7
Cc1nn(C)c(C)c1CCC(=O)NCC1CN(c2ccccc2)CCO1 (stereo not shown) [CBK307199]	103
Cc1ccc(C(=O)C(NC(=O)c2cccs2)Nc2ccc(S(N)(=O)=O)cc2)cc1 (stereo not shown) [CBK264897]	89
CC(C)(C)c1nsc(NC2CCCCCC2)n1 [CBK075061]	96.6
COCCCNC(=S)Nc1ccc(N2CCOCC2)c2nonc12 [CBK266947]	88.8
Cc1nc2ccc(C(=O)N3CCC(O)(c4ccccc4C)CC3)cc2[nH]1 [CBK283300]	95.8
O=C(NCCCc1ccccn1)c1cnn(-c2ccc(F)cc2)c1 [CBK283287]	87.6
O=C(CN(c1cccc(Cl)c1)S(=O)(=O)c1ccc(Cl)cc1)NCc1ccco1 [CBK265356]	106
COc1ccc2nc(-c3ccc(F)c(NC(=O)c4ccccc4)c3)cn2n1 [CBK287827]	110
CCOC(=O)CSc1nc(=O)cc(N)n1Cc1ccc(F)cc1 [CBK269938]	91.1
CSCCCNC(=O)N(CCC#N)C1CCCCC1 [CBK156348]	104
CCOC(=O)c1cccc(NC(=O)CSc2nc3cccnc3[nH]2)c1 [CBK269354]	95.1
CCC1SC2=NC(C)=C(C(=O)OCc3ccccc3)C(c3ccccc3)N2C1=O (stereo not shown) [CBK293960]	82.7
CSc1nc2ccccc2c2nc(-c3ccncc3)nn12 [CBK288566]	99.7
Nc1cccc(-c2cncc(NCC3CCOCC3)n2)c1 [CBK037221]	96.8
Cc1ccc(N2C(=O)N[C@@H]3CCN(C(=O)c4ccc(C(C)(C)C)cc4)[C@@H]3C2=O)cc1 [CBK289284]	98.8

SMILES	viability at 28.5 h, 10 µM [%]
CCCCCC/C=C/c1cnc2nc(NC(=O)NCC)ccc2c1 [CBK061880]	93.3
OCCN1CC2(CCN(CC3COc4ccccc4O3)CC2)c2ccccc21 (stereo not shown) [CBK143955]	86.7
Cc1ccc(C(=O)O)cc1S(=O)(=O)N(C)CCO [CBK267167]	94.1
O=C(Cn1nnc2ccccc21)NC(c1ccccc1)c1ccccc1 [CBK297488]	110
CN(C)CCP(=O)(c1ccccc1)c1ccccc1 [CBK026596]	109
O=C(O)COCC(=O)N1C[C@@H]2OCC(=O)N(Cc3ccccc3)[C@@H]2C1 [CBK289652]	101
CCCn1c(SCC(=O)NCCN2C(=O)CSC2=O)n[nH]c1=O [CBK296976]	89.2
CSCC1CCCN(C(=O)c2cc3ncc(CCO)cn3n2)C1 (stereo not shown) [CBK307256]	79.6
Cn1nc(-c2ccc(S(=O)(=O)n3cc(C#N)c(N)n3)s2)cc1C(F)(F)F [CBK067237]	91.2
CN(C)CCCN1C(=O)C(O)=C(C(=O)c2ccc(F)cc2)C1c1cccnc1 (stereo not shown) [CBK264531]	107
CCn1ccc(NC(=O)CC2CCN(Cc3cccc(C(F)(F)F)c3)CC2)n1 [CBK285997]	101
CC(=O)NCCNC(=O)c1ccc(-c2cnc(OCC3CCN(C(=O)OC(C)(C)C)CC3)nc2)cn1 [CBK170023]	104
CNC(=O)c1cc(-c2cccc(Cl)c2)oc1CC(=O)c1ccc(CN2CCCC2)cc1 [CBK047558]	95.3
O=C(O)C1CCCN1S(=O)(=O)c1ccc([N+](=O)[O-])cc1 (stereo not shown) [CBK261424]	89.7
Cc1ccc(CN2C(=O)CC(Sc3ncccc3C(=O)O)C2=O)cc1 (stereo not shown) [CBK270006]	91.2
CC1(c2ccccc2)CC(C)(C)N(C(=O)CSc2nc3ccccc3o2)c2ccccc21 (stereo not shown) [CBK262466]	104
O=c1[nH]c2ncc(-c3cncc4ccccc34)nc2n1C1CCC(O)CC1 (stereo not shown) [CBK065013]	108
CCOc1ccc(S(=O)(=O)NCc2ccncc2)cc1NC(C)=O [CBK269527]	88
COc1ccc2[nH]nc(CN3CCCC(c4cc(O)nc(C)n4)C3)c2c1 (stereo not shown) [CBK306703]	87.6
O=C(OCCc1ccncc1)N1CCC(F)(F)CC1 [CBK200158]	105
CC1(NC(=O)CC[N+]23CCN(CC2)CC3)CS(=O)(=O)CC1S(=O)(=O)[O-] (stereo not shown) [CBK262518]	92
CCC(=O)N(Cc1cc2cc(C)ccc2nc1O)c1ccc(C)c(C)c1 [CBK265381]	107

SMILES	viability at 28.5 h, 10 µM [%]
CCN(CC)C(=O)c1ccccc1NS(=O)(=O)c1ccc(F)cc1 [CBK045414]	87.7
O=C(NCc1ccccc1)c1cccc(NC(=O)c2cc(-c3ccccn3)nc3ccc(Cl)cc23)c1 [CBK267768]	94
CCc1cc2c(NC(CCSC)C(=O)O)nc(C)nc2s1 (stereo not shown) [CBK266709]	90.3
Cc1c(CN2CCCC2(C)C(=O)NC2CCCC2)cnn1C (stereo not shown) [CBK281960]	108
O=C(c1cc(C2CC2)n[nH]1)N1CCn2cc(C(F)(F)F)nc2C1 [CBK284749]	81.6
Cc1ccc(Cl)c(OC(C)C(=O)NCC2(N3CCOCC3)CCSC2)c1 (stereo not shown) [CBK305681]	110
C[C@@H]1CN(Cc2ccco2)CCN1C(=O)c1nccc2ccccc12 [CBK285489]	99.8
O=C(NCCc1c[nH]c2ccc(Cl)cc12)c1ccc(Cl)cc1Br [CBK159755]	96.3
COc1ccc(CN2CCCN(c3nccc(OCc4cc(C)on4)n3)CC2)cc1 [CBK083911]	100
O=C(c1ccccc1F)N1C2CCC1CC(O)(c1cccnc1F)C2 (stereo not shown) [CBK284420]	98.4
Cc1cn(C2CC(O)C(CNC(=O)C(F)(F)F)O2)c(=O)[nH]c1=O (stereo not shown) [CBK201200]	98
CCSc1ccccc1-c1nc2c(=O)n(C)c(-c3ccc(CN4CCCC4)cc3)cc2o1 [CBK200426T]	77.9
COc1ccccc1CN1CCCC(c2nc(C)n3ccccc23)C1 (stereo not shown) [CBK283026]	87.6
O=[N+]([O-])c1ccc(COc2cccc(/C=N/Nc3nc4ccccc4s3)c2)cc1 [CBK262160]	87.8
CCCC/C=C/c1cncc(Nc2cc(OC)c(OC)c(OC)c2)n1 [CBK065155]	102
Cc1nn(-c2ccccc2)c2nc(O)c(CNC(c3ccccc3)c3ccco3)cc12 (stereo not shown) [CBK286449]	83.8
Brc1ccc2[nH]c3c(c2c1)CCNC31CCN(CCOc2ccccc2)C1 (stereo not shown) [CBK083578]	75.5
Cc1ccc2cccc(OS(=O)(=O)c3ccc(Cl)c(C)c3Cl)c2n1 [CBK263984]	53.7
COC(=O)c1cscc1NC(=O)c1cnc(-c2ccc(Cl)cc2)c(-c2ccco2)c1 [CBK036657]	104
Cc1oc2ccc(O)cc2c1C(=O)N(C)CCOc1ccccc1 [CBK282696]	111
COc1ccc(C(=O)O)cc1N1C(=O)CC(c2c(C)nn(-c3ccccc3)c2N)C1=O (stereo not shown) [CBK291120]	112
Cn1c(SCCN2CCOCC2)nnc1-c1cccs1 [CBK010243]	89.3

SMILES	viability at 28.5 h, 10 µM [%]
N=C(N)NS(=O)(=O)c1ccc(N/C=C\C(=O)c2ccc3ccccc3c2)cc1 [CBK263374]	98.6
O=S(=O)(N1CCCCC1)N1CCCN(S(=O)(=O)N2CCCCC2)CC1 [CBK268939]	85.4
Cn1nc(C2CCN(C(=O)CC3CCCC3)CC2)c2cccnc21 [CBK284943]	111
CCc1c(C(=O)Nc2ccc3nc(C)cn3c2)cnc2cc(O)nn12 [CBK291178]	92.7
CCOc1ccc(S(=O)(=O)N2CCCN(CC(C)C)CC2)c2cccnc12 [CBK062758]	97
CCOCCCNC(=O)c1cccc(S(=O)(=O)N2CCCC2)c1 [CBK305934]	104
COc1ccc(-c2cc(N3CCN(CCN4CCCC4)CC3)ncn2)cc1OC [CBK091173]	94.5
CS(=O)(=O)NC1CCN(C2CCc3c(F)cc(F)cc32)C1 (stereo not shown) [CBK305101]	90.1
Cn1cc(Nc2nc(-c3ccc(CCNS(C)(=O)=O)cc3)cs2)cn1 [CBK305065]	109
CCCOc1ccc(C(=O)C(CN(CC)CC)Oc2ccccc2)cc1 (stereo not shown) [CBK011944C]	94.7
Cc1ccc(S(=O)(=O)N(CC(=O)O)c2cccc(Cl)c2)cc1 [CBK262387]	91.7
Cc1cc(Cl)cc(Br)c1OCCNCCN(C)C [CBK267791G]	102
COc1ccc(CCNc2ncnc3c2cnn3-c2ccc(C)cc2C)cc1OC [CBK294448]	88.2
COc1ccc(-c2cc(Nc3ccccc3)ncn2)cc1 [CBK090911]	93.9
Cc1cccc(N(CC(=O)O)CC(=O)O)c1 [CBK261103]	93.2
CC(C)c1ccc(S(=O)(=O)N(CCC#N)Cc2ccccc2)cc1 [CBK043565]	90.7
CC(C)/N=C1/N[C@@H]2CS(=O)(=O)C[C@H]2O1 [CBK019692G]	87
COc1ccc(C=CC(=O)ONC(=O)c2ccc(OC(F)F)cc2)cc1OC [CBK296098]	92.8
Cc1[nH]c(=O)[nH]c(=O)c1CC(=O)N1Cc2cc(Cl)ccc2OC2(CCOCC2)C1 [CBK286341]	93
Cn1c(=O)cc(NCCCCCC(=O)O)[nH]c1=O [CBK286574]	88.3
Cc1nc2cc(OCc3nc(C(=O)N(C)CCN(C)C)co3)ccc2s1 [CBK306685]	106
CCCCOC(=O)CCc1nc2ccccc2nc1O [CBK264523]	97.3
